Experimental data reported in patent publication US9193687B2 (priority 2007, dated 2015).
Values joined by “and” are separate entries in the source; they are usually repeats but may differ in a detail not shown here. Equal values may be shown once.

What was measured:
[1] = test system: Human mammary carcinoma (MX-1) tumor cells; experiment: In vitro cytotoxicity, SRB assay, 72-hr incubation; conditions: Homo sapiens, 72 h, read-out: Cytotoxicity IC50, MX-1
[2] = test system: CCRF-CEM human lymphoblastic leukemia cells; experiment: cells; conditions: 72 h, read-out: Cytotoxicity IC50, CCRF-CEM
[3] = test system: Human colon carcinoma HCT-116 cells; experiment: cells; conditions: HCT-116, 72 h, read-out: Cytotoxicity IC50, HCT-116
CCRF-CEM/Taxol = experiment: In vitro cytotoxicity, XTT assay, taxol-resistant subline; conditions: Homo sapiens, CCRF-CEM, 72 h, read-out: Cytotoxicity IC50, CCRF-CEM/Taxol
[4] = test system: human mammary carcinoma MX-1 xenograft; experiment: Antitumor therapeutic effect against MX-1 xenograft in nude mice; assay type: in vivo; conditions: for Therapeutic effect: complete tumor remission (CR), mice with CR/total and day: treatment from Day 8, dose and schedule per compound as in Table 3 (30-150 mg/kg); for Remark (dose tolerability): BO-1053 70 mg/kg Q2Dx5, BO-1063 and BO-1065 100 mg/kg QDx3, i.v.
Method: Athymic nude mice bearing the nu/nu gene were obtained from NCI, Frederick, Md. and used for all human tumor xenografts. Male nude mice 6 weeks or older weighing 20-24 g or more were used. Compounds were administered via the tail vein for i.v. injection or infusion as described previously.^64 A typical formulation for chemotherapeutic studies for each drug was dissolved in DSMO to make a 25 mg/ml fresh solution, 0.4 ml of this solution was mixed with 0.3 ml of Tween 80, plus 1.3 ml to make 2 ml of 5 mg/ml solution. Bolus injection volume was 0.1-0.2 ml per mouse. Tumor volume was assessed by measuring length×width×height (or width) by using a caliper. For tumor-bearing nude mice during the course of the experiment, the body weight refers to total weight minus the weight of the tumor. All animal studies were conducted in accordance with the guidelines for the National Institute of Health Guide for the Care and Use of Animals and the protocol approved by the Institutional Animal Care and Use Committee.
The therapeutic effects of a drug against human tumor xenografts in nude mice, under the optimal therapeutic conditions but without any lethality due to drug toxicity, the following degrees of therapeutic effects are defined and calculated by the following formula: […]
where • T0 is the initial tumor size (in mm^3) at beginning of drug treatment; • Tc is tumor size of untreated control group on a given date; and • Tx is tumor size of the drug treated group on a given date.
[formula] • Tumor disappearance (complete remission or CR) is defined by the effect where • [Tx=0] for a period of time (in days) for a proportion of animals (NCR/N), where • N is the total number of animals in the group, and NCR is the number of mice in the group that achieved CR. • Tumor relapse is quantitatively calculated by • [The Day tumor relapsed (Drelp)—The Day CR achieved (DCR)] (Eq. 3) for a proportion of animals (Nrelp/N) where N is the total number of animals in the group, and Nrelp is the number of the mice in the group that relapsed. • The log cell kill (LCK) of the tumor tissue after a given chemotherapy that reached CR is estimated by: LCK=log [2^(Tumor remission in days/Tumor doubling time in days)] (Eq. 4)
Athymic nude mice bearing the nu/nu gene were used for human breast tumor MX-1 xenograft (FIGS. 3 and 4) and human brain glioma U87 GM xenograft (FIG. 5). Nude mice were obtained from National Cancer Institute, Frederick, Md. Male mice 6 weeks old or older weighing 22 g or more were used for experiments with subcutaneous tumor inoculation as described previously.^67 Drug was administrated via the tail vein by iv injection. Tumor volumes were assessed by measuring length×width×height (or width) by using caliper. Vehicle used was 20 μL DMSO in 180 μL saline. All animal studies were conducted in accordance with the guidelines of the U.S. National Institutes of Health Guide for the Care and Use of Animals and the protocol approved by the Institutional Animal Care and Use Committee.

[5] = i.v. injection, dose and schedule per compound as in Table 3

Cc1cc(NNC(=O)Nc2ccc(N(CCCl)CCCl)cc2)c2cc(N(C)C)ccc2n1 [BO-1242] showed an IC50 [1] of 280 nM, an IC50 [2] of 60 nM and an IC50 [3] of 150 nM. It also gave an IC50 (CCRF-CEM/Taxol) of 4190 nM.

For Cc1cc(NC(=O)Nc2ccc(N(CCCl)CCCl)cc2)cc(Nc2c3ccccc3nc3ccccc23)c1 [BO-1079, 1-[3-(acridin-9-ylamino)-5-methylphenyl]-3-{4-[bis(2-chloroethyl)amino]phenyl}urea], the IC50 [1] was 530 nM, the “Therapeutic effect: tumor growth suppression” value ([4]; 75 mg/kg, QDx8, i.v., 1/1 mouse) was 1/1, >99% tumor and the “Maximal body-weight loss (%)” value [4, 5] was 9%. It also gave an IC50 [2] of 140 nM, an IC50 [3] of 800 nM and an IC50 (CCRF-CEM/Taxol) of 380 nM.

For Cc1cccc2c(Nc3cc(CO)cc(NC(=O)Nc4ccc(N(CCCl)CCCl)cc4)c3)c3ccccc3nc12 [BO-1050, 1-{4-[bis(2-chloroethyl)amino]phenyl}-3-[3-hydroxymethyl-5-(4-methylacridin-9-ylamino)phenyl]urea], the IC50 [1] was 120 nM, the “Therapeutic effect: complete tumor remission (CR), mice with CR/total and day” value (“Therapeutic effect … with CR/total and day” for short) ([4]; i.v. injection) was “achieved CR in parts of the mice and 2/2 CR on D16, 18” and the “Maximal body-weight loss (%)” value [4, 5] was 9%. The “Therapeutic effect: tumor relapse” value [4, 5] was “No relapse on D26”, the IC50 [3] was 260 nM and the IC50 (CCRF-CEM/Taxol) was 390 nM.

In the case of COc1ccc(Nc2c3ccccc3nc3ccccc23)cc1NC(=O)Nc1ccc(N(CCCl)CCCl)cc1 [BO-1148], the IC50 [1] is reported as 1200 nM, the IC50 [2] is reported as 10 nM and the IC50 [3] is reported as 260 nM. It also gave an IC50 (CCRF-CEM/Taxol) of 30 nM.

In the case of Cc1cccc2c(Nc3cc(CO)cc(NC(=O)Oc4ccc(N(CCCl)CCCl)cc4)c3)c3ccccc3nc12 [BO-1063, [3-hydroxymethyl-5-(4-methylacridin-9-ylamino)phenyl]carbamic acid 4-[bis(2-chloroethyl)-amino]phenyl ester], the IC50 [1] is reported as 80 nM, the “Remark (dose tolerability)” value [4] is reported as “Too high dose” and the IC50 [2] is reported as 70 nM. It also gave an IC50 [3] of 440 nM and an IC50 (CCRF-CEM/Taxol) of 100 nM.

For COc1ccc(Nc2c3ccccc3nc3c(C)cccc23)cc1NC(=O)Nc1ccc(N(CCCl)CCCl)cc1 [BO-1154], the IC50 [1] was 370 nM, the IC50 [2] was 10 nM and the IC50 [3] was 70 nM. For the same compound, the IC50 (CCRF-CEM/Taxol) was 10 nM.

O=C(Nc1ccc(N(CCCl)CCCl)cc1)Nc1cccc(Nc2cc(-c3ccccc3)nc3ccccc23)c1 [BO-2295] gave an IC50 [2] of 1860 nM.

With COc1ccc2nc(C)cc(NNC(=O)Nc3ccc(N(CCCl)CCCl)cc3)c2c1 [BO-1228, N-{4-[bis(2-chloroethyl)amino]phenyl}-2-(6-methoxy-2-methyl-4-quinolinyl)hydrazinecarboxamide] the IC50 [1] was 260 nM, the IC50 [2] was 200 nM and the IC50 [3] was 260 nM. It also gave an IC50 (CCRF-CEM/Taxol) of 1540 nM.

Work on CC(=O)O[C@H]1C(=O)[C@@]2(C)[C@H]([C@H](OC(=O)c3ccccc3)[C@]3(O)C[C@H](OC(=O)[C@H](O)[C@@H](NC(=O)c4ccccc4)c4ccccc4)C(C)=C1C3(C)C)[C@]1(OC(C)=O)CO[C@@H]1C[C@@H]2O [Taxol, reference compound] yielded an IC50 [1] of 40 nM and an IC50 (CCRF-CEM/Taxol) of 430 nM.

In the case of Cc1ccc(NC(=O)Nc2ccc(N(CCCl)CCCl)cc2)cc1Nc1c2cccc(C)c2nc2c(C(=O)NCCN(C)C)cccc12 [BO-1053, 9-[5-(3-{4-[bis(2-chloroethyl)amino]phenyl}ureido)-2-methyl-phenylamino]-5-methyl-acridine-4-carboxylic acid (2-dimethylaminoethyl)amide], the IC50 [1] is reported as 60 nM, the “Remark (dose tolerability)” value [4] is reported as “Too high dose” and the “Therapeutic effect … with CR/total and day” value ([4]; i.v. injection) is reported as “achieved complete tumor remission”. It also gave an IC50 [2] of 10 nM, an IC50 [3] of 60 nM and an IC50 (CCRF-CEM/Taxol) of 180 nM.

Cc1cc(NC(=O)Nc2ccc(N(CCCl)CCCl)cc2)c2cc(N(C)C)ccc2n1 [BO-1231] gave an IC50 [1] of 180 nM, an IC50 [2] of 110 nM and an IC50 [3] of 300 nM. It also gave an IC50 (CCRF-CEM/Taxol) of 310 nM.

In the case of CC[C@]1(O)C[C@@H]2CN(CCc3c([nH]c4ccccc34)[C@@](C(=O)OC)(c3cc4c(cc3OC)N(C)[C@H]3[C@@](O)(C(=O)OC)[C@H](OC(C)=O)[C@]5(CC)C=CCN6CC[C@]43[C@@H]65)C2)C1 [Vinblastine, reference compound], the IC50 (CCRF-CEM/Taxol) is reported as 80 nM.

CCOC(=O)Nc1cc(COC(=O)Oc2ccc(N(CCCl)CCCl)cc2)cc(Nc2c3ccccc3nc3ccccc23)c1 [BO-1065, carbonic acid 3-(acridin-9-yl-amino)-5-ethoxycarbonylaminobenzyl ester 4-[bis(2-chloroethyl)amino]phenyl ester] was tested, and the IC50 [1] was 90 nM, the “Remark (dose tolerability)” value [4] was “Too high dose” and the IC50 [3] was 640 nM. For the same compound, the IC50 (CCRF-CEM/Taxol) was 510 nM.

Cc1ccc(Nc2c3ccccc3nc3ccccc23)cc1NC(=O)Oc1ccc(N(CCCl)CCCl)cc1 [BO-1171] was tested, and the IC50 [1] was 210 nM, the IC50 [2] was 80 nM and the IC50 [3] was 430 nM. The IC50 (CCRF-CEM/Taxol) was 220 nM.

With O=C(Nc1ccc(N(CCCl)CCCl)cc1)Nc1c2ccccc2nc2ccccc12 [BO-1034, 1-acridin-9-yl-3-{4-[bis(2-chloroethyl)amino]phenyl}urea] the IC50 [1] was 810 nM, the IC50 [2] was 230 nM and the IC50 [3] was 900 nM. For the same compound, the IC50 (CCRF-CEM/Taxol) was 390 nM.

COc1cc(NC(=O)Oc2ccc(N(CCCl)CCCl)cc2)cc(Nc2c3ccccc3nc3ccccc23)c1 [BO-1066, [3-(acridin-9-ylamino)-5-methoxyphenyl]carbamic acid 4-[bis(2-chloroethyl)amino]phenyl ester] was tested, and the IC50 [1] was 340 nM, the “Therapeutic effect … with CR/total and day” value ([4]; i.v. injection) was “achieved complete tumor remission and 1/1 CR on D22” and the “Maximal body-weight loss (%)” value [4, 5] was 13%. The IC50 [2] was 210 nM, the IC50 [3] was 1710 nM and the IC50 (CCRF-CEM/Taxol) was 310 nM.

In the case of Cc1ccc(Nc2c3ccccc3nc3c(C)cccc23)cc1NC(=O)Oc1ccc(N(CCCl)CCCl)cc1 [BO-1064, [2-methyl-5-(4-methylacridin-9-ylamino)phenyl]-carbamic acid 4-[bis(2-chloroethyl)amino]phenyl ester], the IC50 [1] is reported as 290 nM, the “Therapeutic effect … with CR/total and day” value ([4]; i.v. injection) is reported as “achieved complete tumor remission and 1/1 CR on D22” and the “Maximal body-weight loss (%)” value [4, 5] is reported as “Died of”. For the same compound, the IC50 [2] was 130 nM, the IC50 [3] was 610 nM and the IC50 (CCRF-CEM/Taxol) was 170 nM.

With Cc1ccc(NC(=O)Nc2ccc(N(CCCl)CCCl)cc2)cc1Nc1c2ccccc2nc2c(C)cccc12 [BO-1149] the IC50 [1] was 590 nM, the IC50 [2] was 10 nM and the IC50 [3] was 160 nM. The IC50 (CCRF-CEM/Taxol) was 20 nM.

With COc1ccc(Nc2c3ccccc3nc3ccccc23)cc1NC(=O)Oc1ccc(N(CCCl)CCCl)cc1 [BO-1172] the IC50 [1] was 180 nM, the IC50 [2] was 90 nM and the IC50 [3] was 190 nM. It also gave an IC50 (CCRF-CEM/Taxol) of 160 nM.

For Cc1cc(NNC(=O)Nc2ccc(N(CCCl)CCCl)cc2)c2ccccc2n1 [BO-1233, N-{4-[bis(2-chloroethyl)amino]phenyl}-2-(2-methyl-4-quinolinyl)hydrazinecarboxamide], the IC50 [1] was 360 nM, the IC50 [2] was 120 nM and the IC50 [3] was 380 nM. For the same compound, the IC50 (CCRF-CEM/Taxol) was 1830 nM.

O=C(NNc1cc(-c2ccccc2)nc2ccccc12)Nc1ccc(N(CCCl)CCCl)cc1 [BO-1393] gave an IC50 [1] of 1780 nM, an IC50 [2] of 580 nM and an IC50 [3] of 1260 nM. For the same compound, the IC50 (CCRF-CEM/Taxol) was 910 nM.

With O=C(Nc1ccc(Nc2cc(-c3ccccc3)nc3ccccc23)cc1)Nc1ccc(N(CCCl)CCCl)cc1 [BO-2294] the IC50 [2] was 3010 nM.

O=C(NNc1cc(-c2ccccc2)nc2cc3c(cc12)OCO3)Nc1ccc(N(CCCl)CCCl)cc1 [BO-1391] was tested, and the IC50 [1] was 1020 nM, the IC50 [2] was 260 nM and the IC50 [3] was 2020 nM. The IC50 (CCRF-CEM/Taxol) was 570 nM.

COc1ccc(Nc2c3ccccc3nc3c(C)cccc23)cc1NC(=O)Oc1ccc(N(CCCl)CCCl)cc1 [BO-1213] gave an IC50 [1] of 140 nM, an IC50 [2] of 20 nM and an IC50 (CCRF-CEM/Taxol) of 30 nM.
